pIC50: −log10 of the molar value. Counter-ions that a name gives are not always drawn.
Molecular target: cAMP-dependent protein kinase catalytic subunit alpha (Homo sapiens, UniProt P17612)
Experiment: inhibition of cAMP-dependent kinase PKA – biochemical, Kinase-Glo luminescence, Kemptide substrate, dose response (AID 548)
Settings: not given

| Structure (SMILES) | pIC50 |
| --- | --- |
| Cc1cccc(NC(=O)CSc2n[nH]c(-c3ccncc3)n2)c1 [N-(3-methylphenyl)-2-[(5-pyridin-4-yl-1H-1,2,4-triazol-3-yl)thio]acetamide] | < 4.22 |
| c1ccc2c(-c3ccncc3)c[nH]c2c1 | 4.95 |
| Clc1ccc(OCCN2CCN(c3ncnc4sccc34)CC2)cc1 [4-[4-[2-(4-chloranylphenoxy)ethyl]piperazin-1-yl]thieno[2,3-d]pyrimidine] | 4.23 |
| Cc1ccc(S(=O)(=O)NCCSc2nnnn2-c2ccc(C(N)=O)cc2)cc1 [4-[5-[2-(tosylamino)ethylthio]tetrazol-1-yl]benzamide] | 4.98 |
| Nc1[nH]nc2nc(N3CCCC3)nc(-c3ccccc3)c12 | < 4.22 |
| C1=C(c2c[nH]c3ccccc23)CCNC1 | < 4.22 |
| Fc1ccccc1N1CCN(c2ncnc3n[nH]cc23)CC1 [4-[4-(2-fluorophenyl)piperazin-1-yl]-1H-pyrazolo[3,4-d]pyrimidine] | 4.28 |
| c1nc(NC2CCCCC2)c2[nH]cnc2n1 [N-cyclohexyl-7H-purin-6-amine] | 5.05 |
| Cn1c(SCc2ccc(Br)cc2)nnc1-c1ccncc1 [4-[5-[(4-bromobenzyl)thio]-4-methyl-1,2,4-triazol-3-yl]pyridine] | < 4.22 |
| c1ccc(Cn2ncc3c2ncn2c(-c4ccncc4)nnc32)cc1 [7-Benzyl-3-pyridin-4-yl-7H-pyrazolo[4,3-e][1,2,4]triazolo[4,3-c]pyrimidine] | < 4.70 |
| CCC1CCCCN1c1nc(-c2ccncc2)nc2ccccc12 (centres undefined) [4-(2-ethyl-1-piperidinyl)-2-pyridin-4-ylquinazoline] | 4.87 |
| O=C(CCCOc1ccccc1)Nc1ccncc1 [4-Phenoxy-N-pyridin-4-yl-butyramide] | < 4.22 |
| CCN1CCN(Cc2nnnn2C(C)(C)C)CC1 [1-(1-tert-Butyl-1H-tetrazol-5-ylmethyl)-4-ethyl-piperazine] | < 4.22 |
| COc1cc2c(cc1NC(=O)COC(=O)Cn1cnc3ccccc31)oc1ccccc12 [2-(1-benzimidazolyl)acetic acid [2-[(2-methoxy-3-dibenzofuranyl)amino]-2-oxoethyl] ester] | 4.43 |
| Nc1c(S(=O)(=O)c2cccc(Cl)c2)c2c(n1N=CC1=CC(=O)C(=O)C=C1)Nc1ccccc1N2 [4-[[2-azanyl-3-(3-chlorophenyl)sulfonyl-4,9-dihydropyrrolo[3,2-b]quinoxalin-1-yl]iminomethyl]cyclohexa-3,5-diene-1,2-dione] | < 4.22 |
| Cc1ccc(SCc2nc(-c3ccncc3)no2)cc1 [4-(5-{[(4-methylphenyl)thio]methyl}-1,2,4-oxadiazol-3-yl)pyridine] | < 4.22 |
| c1nc(N2CCCC2)c2[nH]cnc2n1 [6-(1-pyrrolidinyl)-7H-purine] | 4.45 |
| CC(=O)n1cc(-c2ccncc2)c2ccccc21 [1-(3-pyridin-4-yl-1-indolyl)ethanone;hydrochloride] | 4.35 |
| Cc1c2ccncc2c(C)c2c1[nH]c1ccccc12 [5,11-dimethyl-2H-pyrido[4,3-b]carbazole] | 5.39 |
| O=NCc1c[nH]c2ccccc12 [MLS000104363] | 4.46 |
| O=C(CSc1nnc(-c2ccncc2)[nH]1)c1ccccc1 | 4.61 |
| c1ccc(CCCNc2[nH]cnc3ncnc2-3)cc1 | 4.40 |
| COc1ccc2c(Cl)c(C(N)=O)sc2c1 [3-Chloro-6-methoxy-benzo[b]thiophene-2-carboxylic acid amide] | < 4.22 |
| Nc1nonc1-n1nncc1-c1ccccc1 [4-(5-phenyl-1,2,3-triazol-1-yl)-1,2,5-oxadiazol-3-amine] | < 4.22 |

Now from value to compound:

| pIC50 | Structure (SMILES) |
| --- | --- |
| < 4.70 | c1ccc(Cn2ncc3c2ncn2nc(-c4ccncc4)nc32)cc1 [MLS000078634] |
| < 4.22 | Fc1cc2nc(-c3ccncc3)[nH]c2cc1F [SMR000040673] |
| 4.30 | Cc1cc2c(ccc3[nH]onc32)n1 [MLS000038925] |
| < 4.22 | CCc1cc2c(O)ncnc2s1 [MLS000029626] |
| < 4.22 | CCOc1ccc2nc3ccc4[nH]onc4c3c2c1 [SMR000111865] |
| < 4.22 | CN(C(=O)COc1ccccc1)c1nnc(-c2ccncc2)s1 [MLS000075421] |
| < 4.22 | Cc1cc2ccccc2c(=O)n1CC(=O)Nc1ccc2c(c1)OCO2 [MLS000086255] |

Same assay, conditions: inactive by the depositor's call

| pIC50 | Structure (SMILES) |
| --- | --- |
| 4.15 | CC1(C)Cc2c(c(-c3ccco3)nc3n[nH]c(N)c23)CO1 [SMR000045457] |
| 3.45 | NC(=O)c1sc2nc(N3CCCCC3)c3c(c2c1N)CCCC3 [1-amino-5-(1-piperidinyl)-6,7,8,9-tetrahydrothieno[2,3-c]isoquinoline-2-carboxamide] |
| 3.64 | Fc1ccccc1Cn1nnc2c(-n3ccnc3)ncnc21 [3-(2-Fluoro-benzyl)-7-imidazol-1-yl-3H-[1,2,3]triazolo[4,5-d]pyrimidine] |
